Tested on: naive CD4+CD25− T cells
Assay: In vitro induction of iTregs by DCreg with cytokine blockade
Type: cell-based, mice
Conditions: blockade during co-culture (stage 1)
Protocol: In vitro T cell priming assays. To generate CD4^+CD25^−Foxp3^+ cells in vitro, Naive CD11c^+ dendritic cells (2×10^5) were cultured in 6-well, and stimulated with pVAX-Derp1 (10 μg/ml) plus Derp1 peotein (10 μg/ml) in the present of anti-IL10 or TGF-β for 48 hrs. Three groups of dendritic cells pretreated were added to culture medium with naive CD4^+CD25^− T cells (1×10^6) in RPMI 1640 each 48 hrs for 3 times. And then GFP expression in CD4^+CD25^− T cells were analyzed by FACS. To check the roles of cytokines during DCreg induce iTregs, we co-cultured CD11c^+ DC pretreated with pVAX-Derp1 (10 μg/ml) plus Derp1 peotein (10 μg/ml) with naive T cells, synchronously, plus anti-IL-10, anti-TGF-β or TGF-β receptor inhibitor, SB-525334 (14.3 nM) each 48 hrs for 3 times. […]
As reported, blockade of TGF-β and IL-10 could demolish the development and suppressive function of iTregs. […] The roles of TGF-β and IL-10 were detected during the induction of iTregs by DCreg in vitro. GFP expression in CD4^+CD25^− T cells was detected after 72 hrs of co-culture with CD11C^+ DCreg 3 times each two days in the presence of anti-IL-10 or anti-TGF-β as stage 1 in FIG. 13A. […]

## Cc1cccc(-c2[nH]c(C(C)(C)C)nc2-c2ccc3nccnc3c2)n1 [SB-525334]
  generation of CD4+CD25−GFP+ iTregs by DCreg: could decrease the iTreg induction

— patent publication US20150044244A1, “COMBINED FACILITATOR, ANTIGEN AND DNA VACCINE FOR PREVENTING AND TREATING AUTOIMMUNE DISEASES” (BEIJING ADVANCCINE BIOTECHNOLOGY CO. LTD., priority 2011, published 2015)
